Assay results as given in patent publication US8784793B2, “Conformable solvent-based bandage and coating material” (Rochal Industries LLP, priority 2005, dated 2014).

Test: Rate of polymerization of BCA on a glass slide as a function of HMDS concentration
Type: physicochemical
Experimental: Additionally, a test was conducted for the rate of polymerization as a function of solvent concentration in order to assess the time interval for heat generation upon the polymerization of the cyanoacrylate monomer. The mixture included n-butyl cyanoacrylate in the presence and absence of hexamethyldisiloxane. […] Utilizing a glass slide containing BCA with no HMDS as the control, polymerization of this neat system occurred in 25 seconds. When a 20% BCA solution in HMDS was studied, utilizing the same amount of BCA as in the control, polymerization occurred in 40 seconds, and decreased the polymerization rate by 60%. […] Thus, the addition of the non-stinging, non-irritating volatile hexamethyldisiloxane solvent caused polymerization of the cyanoacrylate to occur at a slower rate than that reported by U.S. Pat. No. 6,010,714, allowing the heat of polymerization to be more evenly dissipated. […] The use of the HMDS would thus facilitate rapid coverage of a wound site.

flow over the glass surface: tended to bead
time in which polymerization occurred (same amount of BCA as control): 25 s
Compound: C=C(C#N)C(=O)OCCCC [BCA, n-Butyl cyanoacrylate]
